Laboratory results from the SangsterLogP compilation.

experiment: method code SF, from Hansch, C. & Leo, A. (1987). Log P database [Dataset]. Pomona College Medicinal Chemistry Project.; details: not given

SMILES	logP
O=c1cncc[nH]1	-1.49
CCCCC1=Nc2ccc(Cl)cc2S(=O)(=O)N1	2.52
CC=NO	-0.13
COc1ccc(CN(CCN(C)C)c2ccccn2)cc1	2.85
O=C(CO)OCc1ccccc1	1.12
O=[N+]([O-])C=Cc1ccoc1	1.41
O=C(NP(=O)(N1CC1)N1CC1)c1cc(I)ccc1I	1.35
Cc1ccc2[nH]c(CCc3nc4cc(C)ccc4[nH]3)nc2c1	1.39
Cc1ccccc1C(O)c1ccccc1 (stereo unspecified)	3.06
N#CSCc1ccccc1	1.99
OCCOCCN1CCN(CCCN2c3ccccc3Sc3ccc(C(F)(F)F)cc32)CC1	4.49
CCOC(CCC#N)OCC	0.75
NC(=O)c1ccc(O)cc1	0.33
c1ccc(-n2cccc2)cc1	3.08
Ic1cn[nH]c1	1.7
COc1ccc2[nH]c(CCCCc3nc4cc(OC)ccc4[nH]3)nc2c1	1.42
CCOC(=O)C(=Cc1ccc(OC)cc1)C(=O)OCC	3.28
O=Cc1cccc(Oc2ccccc2)c1	3.38
COc1cc(C=NO)ccc1OCCOC(=O)c1cccc(Cl)c1	3.94
CC(C)c1ccccc1O	2.88
O=C(Oc1ccccc1)Oc1ccccc1	3.28
CCCCCc1cn[nH]c1	2.96
CC(=O)C(=Cc1ccccc1Cl)C(C)=O	2.19

SMILES	logP
CC(=O)OC[C@H]1O[C@@H](NC(=O)N(CCCl)N=O)[C@H](OC(C)=O)[C@@H](OC(C)=O)[C@H]1OC(C)=O	1.04
CCc1cnc(C=Cc2ccc([N+](=O)[O-])o2)nc1	1.55
S=P(N1CC1)(N1CC1)N1CC1	0.53
CCCCCCCCC1OC(=O)c2ccccc21 (stereo unspecified)	3.94
CC(C)(C)CC1=Nc2ccc(Cl)cc2S(=O)(=O)N1	2.71
CCOC(=O)CON=Cc1ccc(OCCOC(=O)c2cc(OC)c(OC)c(OC)c2)c(OC)c1	3.26
Cc1ccc2[nH]c(=O)[nH]c(=O)c2c1	0.55
CCCNP(=O)(OC)Oc1cc(Cl)c(Cl)cc1Cl (stereo unspecified)	3.7
COC(=O)Cc1cccs1	1.51
CC(=O)c1ccccc1O	1.88
CC(=O)Oc1cccc(Cl)c1	2.32
COc1cccc([N+]([O-])=NC#N)c1	2.24
C=C(C)C	2.34
CCS(=O)(=O)c1ccc(S(N)(=O)=O)c2ccccc12	1.24
NS(=O)(=O)c1cccc(OC(=O)CNC(=O)c2ccccc2)c1	0.84
NC(=S)NN=Cc1ccccc1	1.86
O=C(/C=C/C(=O)c1ccccc1)c1ccccc1	3.16
CCC(C)c1cnc(CC(C)C)c(=O)n1O (stereo unspecified)	1.81
CCC(=O)OCCOc1ccc(C=NO)cc1OC	1.52
COc1ccccc1C(=O)c1ccncc1	1.86
BrCCBr	1.96
CO[C@H]1C=CO[C@@]2(C)Oc3c(C)c(O)c4c(O)c(c(CN5CCN(C)CC5)c(O)c4c3C2=O)NC(=O)/C(C)=C\C=C/[C@@H](C)[C@@H](O)[C@@H](C)[C@H](O)[C@H](C)[C@@H](OC(C)=O)[C@H]1C	1.76
COc1cc(Cl)cc(Cl)c1	3.74

SMILES	logP
ClCCOCCCl	1.29
CCCCC1OC(=O)c2cc(Br)ccc21 (stereo unspecified)	4.24
CCOC(=O)c1ccccc1N	2.57
CCCCNC(N)=O	0.41
CCOP(=O)(OCC)Oc1ccc(SC)cc1C	3.21
O=C(O)COc1ccccc1-c1ccccc1	2.83
CCCC(=O)OCC(O)CO (stereo unspecified)	-0.17
CCN(CC)c1ccc(CO)cc1	2.29
CC(=O)CCC(=O)N(C)c1ccc(S(=O)(=O)N(C)C)cc1	0.2
c1ccc2c(c1)CCc1ccccc1NC2	2.82
O=c1[nH]c2ccccc2s1	1.76
CC1=Nc2c(C)cccc2S(=O)(=O)N1	0.52
CCC(C)C(=O)Nc1ccccc1 (stereo unspecified)	2.56
Nc1cccc(OC(=O)CNC(=O)c2ccccc2)c1	1.3
C#CCCC(C)=O	0.58
S=C=Nc1ccccc1	3.25
Cc1ccc(/C=C/[N+](=O)[O-])cc1	2.66
CCOc1ccc(OC(C)=O)cc1	1.95
NC(=O)c1cccc(O)c1	0.39
O=C(O)COc1ccc(Cl)c(Br)c1	2.75
NC(=O)c1cccc(N)c1	-0.33
C[C@@H]1CC[C@H](C)N1C(=O)Nc1ccccc1	2.33
CC(=O)Nc1ccc2c(c1)S(=O)(=O)c1ccc(C)cc1C2=O	2.76

SMILES	logP
O=C(O)c1ccco1	0.64
CC(C)Oc1ccccc1OC(=O)N(C)C	2.06
C/N=C/c1ccccc1	1.64
FC(F)Cl	1.08
NC(=O)c1ccc(Cl)cc1	1.53
NC(=O)Oc1ccccc1	1.08
COc1ccc2c(=O)c(C)c(C(C)C)oc2c1	3.39
CN(C)C(=O)Cc1cccs1	0.65
COc1cc(C(=O)C=CN2CC=CC2)cc(OC)c1OC	1.77
CCC(C)NC(=O)C=C(Cl)c1ccc(Cl)cc1 (stereo unspecified)	3.61
CCOC(=O)CC(=O)C=Cc1ccc(C)cc1	2.63
CN1CCOCC1	-0.33
CS(=O)(=O)Nc1ccccc1	0.95
CCCCCCCCN(CCCCCCCC)N=Cc1c2c(O)c3c(O)c(C)c4c(c3c1O)C(=O)C(C)(O/C=C\C(OC)C(C)C(OC(C)=O)C(C)C(O)C(C)C(O)C(C)/C=C\C=C(\C)C(=O)N2)O4 (stereo unspecified)	3.6
Clc1ccc2ncccc2c1	2.73
CC(=O)C(=Cc1ccccc1)C(C)=O	1.59
CC(=O)OCC(COC(C)=O)OC(C)=O	0.25
CCC1(CCC(C)C)C(=O)NC(=S)NC1=O	2.98
CN(C)Cc1ccco1	1.19
CC(=O)Nc1ccc(C(C)=O)cc1	1.24
COc1ccc(C(C)=O)c(O)c1	1.98
c1ccc(CSc2nnc[nH]2)cc1	1.45
CCOC(N)=O	-0.15

SMILES	logP
Sc1ncccn1	-0.97
COc1cc2c(c3c1c(=O)c1ccccc1n3C)C=CC(C)(C)O2	3.67
NC(=S)c1ccccc1N	0.99
CC=CC(=O)Nc1ccc(Cl)c(Cl)c1	3.63
N#CC(C#N)=C(c1ccccc1)c1ccccc1	3.55
Cc1oc2cc(OCC#N)ccc2c(=O)c1C	1.96
NC(=O)N=[N+]([O-])c1ccccc1	0.58
OC(c1ccccc1)C1CCCCN1 (stereo unspecified)	1.28
Cc1nnc(C)s1	0.03
O=c1cc[nH]c2ccccc12	0.58
O=[N+]([O-])c1ccc2cccnc2c1	1.82
CCOP(=S)(OCC)Oc1ncn(-c2ccccc2)n1	3.55
O=C(O)CONC(=O)c1ccccc1	-0.27
CCOC(=O)C(=Cc1cccc(Cl)c1)C(=O)OCC	3.49
CN(c1ccccc1)S(C)(=O)=O	1.02
Cc1c(C2(c3cc(C(C)C)c(O)c(Br)c3C)OS(=O)(=O)c3ccccc32)cc(C(C)C)c(O)c1Br	2.78
O=C1C=CC(=NCl)C=C1	1.26
O=Cc1ccc2c(c1)OCO2	1.05
CN(C)C(=O)N(c1ccccc1)c1ccccc1	2.8
O=NN1CCCCC1=O	-1.05
CCOCCCl	0.98
CC[C@H]1OC(=O)[C@H](C)[C@@H](OC2CC(C)(OC)C(O)C(C)O2)C(C)[C@@H](OC2OC(C)CC(N(C)C)C2O)[C@](C)(O)C[C@@H](C)C(=O)[C@H](C)[C@@H](O)[C@H]1C (stereo partly specified)	3.12
NC(=O)NC1OC(=O)c2ccccc21 (stereo unspecified)	0.49

SMILES	logP
ClC(Cl)=C(Cl)Cl	3.4
CSC(=O)Nc1ccc(Cl)c(Cl)c1	4.23
O=C(O)COc1ccc(S(=O)(=O)F)cc1	1.82
ClC(Cl)=Nc1ccccc1	2.54
CNC(=S)NC	-0.24
c1ccc(SSc2ccccc2)cc1	4.41
COc1cccc(OC)c1OC	1.53
CCC(C)NC(=O)/C(F)=C\c1ccccc1 (stereo unspecified)	3.1
CCOC(=O)C(=Cc1ccc([N+](=O)[O-])cc1)C(=O)OCC	3.03
CC(=O)Nc1ccc(N(C)C)cc1	1
CN(C)c1cccc2ccccc12	3.46
CC(=O)Nc1ccc(Cl)c(Cl)c1	2.96
c1ccc(Sc2ccccc2)cc1	4.45
CN(C)C(=O)Nc1ccc(Br)cc1	2.19
CNP(=O)(OC)Oc1ccc(OC)cc1 (stereo unspecified)	1.06
Nc1ccccc1I	2.32
CC(=O)Nc1cc2c(cc1Cl)S(=O)(=O)NC(C)=N2	0.53
CS(=O)(=O)Nc1cccc(NS(C)(=O)=O)c1	0.07
CCOC(=O)C(=Cc1ccccc1C)C(=O)OCC	3.22
c1ccc(-c2nc3ccccc3s2)cc1	4.26

same assay, conditions: pH 1.0

SMILES	logD
O=C(O)c1ccccc1-c1ccccc1C(=O)O	2.07

same assay, conditions: pH 2.0

SMILES	logD
O=C(O)c1ncccc1O	-1.27
Cn1cc(C(=O)O)c2ccccc21	1.76

same assay, conditions: pH 3.0

SMILES	logD
CC(=O)OCC1=C(C(=O)O)N2C(=O)[C@@H](NC(=O)CBr)[C@H]2SC1	-0.7

same assay, conditions: pH 4.6

SMILES	logD
CCN(CC)/N=N/c1nc[nH]c1C(N)=O	0.78

same assay, conditions: pH 7.0

SMILES	logD
CC(=O)c1ccc(C(C)=O)cc1	1.34
CCOc1cccc(NC(C)=O)c1	1.82
CN1CC(C)(C)C(=O)c2ccccc21	2.72
CO[C@H]1[C@@H](O)[C@@H](C)O[C@H](O[C@H]2[C@H](Oc3cccc4c(O)c5c(=O)oc6ccc(C)c7c(=O)oc(c34)c5c67)O[C@H](C)[C@H](O)[C@@H]2O)[C@@H]1O	1.8
COc1cccc(S(C)(=O)=O)c1	0.86

same assay, conditions: pH 7.4

SMILES	logD
NC(=O)c1ncccc1O	0.65
CCN(CC)c1c(C)n(-c2ccccc2)c(=O)n(C)c1=O	2.19
N=c1ccccn1O	-0.87
COc1ccc2c(c1O)-c1cccc3c1C(C2)N(CCO)CC3 (stereo unspecified)	2.43
CCCCNc1c(C)n(C)c(=O)n(-c2ccccc2)c1=O	1.69
Cc1cc(C(=O)NNCc2ccccc2)no1	1.49

same assay, conditions: pH 11.0

SMILES	logD
CN(C)Cc1cccnc1	0.49

same assay, conditions: pH 13.0

SMILES	logD
CC1(C)N=C(N)N=C(N)N1c1ccc(N)cc1	-0.59
CC1(C)N=C(N)N=C(N)N1c1ccc(F)cc1	0.37
CN[C@@H](C)Cc1ccccc1	2.07
CCOc1cc(Cc2cnc(N)nc2N)cc(OCC)c1	2.52
